In patent US20260355318A1, “MOLECULAR MACHINES FOR TREATMENT OF CANCER, FUNGAL INFECTIONS, OR BACTERIAL INFECTIONS” (priority 2022, published 2026):
Read-outs that look alike come from different tables or passages of the source.

Experiments:
[1] = system: S. aureus; experiment: Time-kill / light-dose experiments, S. aureus; assay type: cell-based, Staphylococcus aureus; conditions: 0.625 to 5 μM of MM, 405 nm
Procedure: (§1) Serial dilutions of irradiated cell suspensions were prepared in PBS. A volume of 10 AL of the appropriate serial dilutions was spot-plated onto LB agar plates. Following overnight incubation at 30 or 37 ° C, depending on the strain, bacterial viability was assessed as colony forming units (CFU) per mL. Results were expressed as log (N/NO) whereby N is the CFU mL^−1 at each irradiation time point and NO is the initial CFU mL^−1 of the corresponding sample. Only dilutions that yielded 10-100 colonies were counted.

[2] = system: A. baumannii; experiment: MIC, A. baumannii; assay type: cell-based, Acinetobacter baumannii; conditions: for MIC of MM: A. baumannii, 405 nm light; for MIC: Acinetobacter baumannii, read-out: MIC of MM
Method in brief: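 Cell suspensions were exposed to compound at 0.3125-40 μM for 30 min in the dark, with agitation, at 30 or 37 °C depending on strain. Each sample was then irradiated with 405 nm light at 146 mW cm^−2 for 5 min (43.8 J cm^−2), inoculated into MHB and incubated overnight. MIC was read as the lowest concentration without visible growth, alongside non-irradiated controls.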

[3] = system: A. baumannii; experiment: Time-kill / light-dose experiments, A. baumannii; assay type: cell-based, Acinetobacter baumannii; conditions: highest concentration of MM (5 μM), 405 nm
Procedure: as §1

[4] = system: P. aeruginosa; experiment: Time-kill / light-dose experiments, P. aeruginosa; assay type: cell-based, Pseudomonas aeruginosa; conditions: for light dose for complete eradication: 0.625 to 5 μM of MM, 405 nm; for time to reduce cell number to limit of detection: 2×MIC, 146 mW cm^−2 405 nm
Procedure: as §1

[5] = system: A. baumannii, E. coli, P. aeruginosa, S. aureus; experiment: Resistance development / cross-resistance in bacteria (serial passaging); assay type: cell-based
Procedure: Isolation of MM-resistant mutants of E. coli, A. baumannii, P. aeruginosa, and S. aureus was attempted by irradiating cell suspensions treated with 4×MIC of the different MMs for 5 min at 146 mW cm^−2 (43.8 J cm^−2). No visible colonies could be obtained for any of the strains tested.
For resistance development by sequential passaging (Ling et al., 2015), A. baumannii, E. coli, P. aeruginosa, and S. aureus cells in exponential phase were collected and processed as described for MIC determination. Cells were incubated at 37 ° C for 24 h after which they were inspected for growth. Cells able to grow at 0.5×MIC were collected and re-challenged with a range of MM concentrations and then irradiated. The antibiotics ciprofloxacin and gentamicin (for Gram-negatives) or ciprofloxacin and tobramycin (for S. aureus) were used as controls.

[6] = system: Gram-negative and Gram-positive strains; experiment: MIC comparison Gram-positive versus Gram-negative strains (incl. MRSA); assay type: cell-based; conditions: FIG. 33C
Source text: The dotted line denotes the limit of detection of the method. Results are the means of at least 3 biological replicas #standard error of the mean. (FIG. 33B) MIC value of MM 1, MM 5, MM 6 in different Gram-negative and Gram-positive strains, including MRSA. Bars represent the results from at least 3 biological replicas. Unless otherwise noted, results for MM and DMSO are always reported in the presence of light. (FIG. 33C) Box and whiskers plot (median values with min/max range) of the MIC values of MM 1, MM 5, and MM 6 among the Gram-negative and Gram-positive strains examined in this study. * P<0.05; ns, not significant.
The appropriate volume of an MM stock at 8 mM necessary to achieve a concentration ranging from 0.3125 to 40 μM was pipetted into a 2 mL microcentrifuge tube to which 1 mL of cell suspension prepared as previously described was added. Corresponding negative controls (DMSO only) were prepared in the same way. […] Afterward, MM- or DMSO-treated cells were dispensed in one well of a 24-well plate positioned in the center of the light beam (405 nm LED Light, Prizmatix, UHP—F-5-405) placed at the appropriate distance necessary to achieve the desired light intensity of 304 mW cm-2, 146 mW cm2 or 87 mW cm2, as measured with a handheld digital power meter console coupled to an S415C thermal power sensor head (Thorlabs, Newton, MA, USA). […]

[7] = system: E. coli; experiment: Time-kill / light-dose experiments, E. coli; assay type: cell-based, Escherichia coli; conditions: E. coli; for light dose for complete eradication: highest concentration of MM (5 μM), 405 nm
Procedure: as §1

[8] = system: normal human dermal fibroblasts (NHDFs); experiment: Toxicity to NHDF (CellTiter-Glo); assay type: cell-based; conditions: 5 min, 405 nm light 146 mW cm^−2, 5 min, read-out: IC50 (NHDF viability)
Procedure: Biocompatibility of MM with primary NHDF and HEK293T cells was assessed using the CellTiter-Glo® Luminescent Cell Viability Assay (Promega), per the manufacturer's instructions. The MM concentrations that reduced cell viability by 50% (IC50) were identified and the therapeutic index was calculated as the ratio between the IC50 and the MIC at a light intensity of 146 mW cm^−2.

[9] = system: E. coli; experiment: Tetracycline uptake; assay type: cell-based, Escherichia coli; conditions: 0.5×MIC MM pre-treatment, vs DMSO
Procedure: The ability of pre-treatment with subinhibitory concentrations of MMs to potentiate antibiotic killing was further evaluated by monitoring the fluorescence of tetracycline uptake. […] Irradiated cell suspensions were then collected, and tetracycline (128 μg mL^−1 final concentration) was added. A volume of 100 μL per well of tetracycline amended cell suspension was transferred to a black 96-well plate and fluorescence was read every 5 min for 60 min at room temperature in a microplate reader (Ex: 405 nm, Em: 535 nm) (BioTek Instruments Inc, Winooski, VT, USA). Results were expressed as RFU corrected for fluorescence in the absence of cells.

[10] = Escherichia coli, read-out: MIC of MM in antibiotic-resistant E. coli
[11] = Staphylococcus aureus, S. aureus Gentamycin^R, one line per passage 1-20, read-out: MIC of MM in antibiotic-resistant S. aureus

With `C[C@@H]1Cc2ccc3ccccc3c2/C1=C1\c2ccccc2Sc2cc(NCCN)ccc21` (racemic) [MM 6, N^1-(9-(2-methyl-2,3-dihydro-1H-cyclopenta[a]naphthalen-1-ylidene)-9H-thioxanthen-3-yl)ethane-1,2-diamine] the “light dose for complete eradication” value [1] was 16 J cm^−2, the “MIC of MM” value [2] was 2.5 µM and the MIC [2] was 2.5 µM. The “light dose for complete eradication” value [3] was “at least 40 J cm^−2”, the “light dose for complete eradication” value [4] was 16 J cm^−2 and the “time to reduce cell number to limit of detection” value [4] was 10 min. For the same compound, the MIC [5, 10] was 0.5 µM, the MIC [5, 11] was 0.125 µM and the “median MIC in Gram-positive versus Gram-negative bacteria” value [6] was “significant differences in the MIC between the two bacterial groups were not observed”. The “time to reduce cell number to limit of detection” value ([7]; 2×MIC, 146 mW cm^−2 405 nm) was 4 min, the “light dose for complete eradication” value [7] was “at least 40 J cm^−2” and the IC50 [8] was 10 µM. For the same compound, the intracellular tetracycline fluorescence [9] was “substantial increase in intracellular tetracycline fluorescence”.

In the case of `C[C@@H]1Cc2ccc3ccccc3c2/C1=C1\c2ccccc2Sc2cc(NCCN(C)C)ccc21` [MM 1, N^1N^1-dimethyl-N^2-(9-(2-methyl-2,3-dihydro-1H-cyclopenta[a]naphthalen-1-ylidene)-9H-thioxanthen-3-yl) ethane-1,2-diamine], the “light dose for complete eradication” value [1] is reported as 16 J cm^−2, the “MIC of MM” value [2] is reported as 2.5 µM and the MIC [2] is reported as 2.5 µM. The “light dose for complete eradication” value [3] was “at least 40 J cm^−2”, the “light dose for complete eradication” value [4] was 16 J cm^−2 and the “time to reduce cell number to limit of detection” value [4] was 3 min. For the same compound, the MIC [5, 10] was 4 µM, the MIC [5, 11] was 0.125 µM and the “median MIC in Gram-positive versus Gram-negative bacteria” value [6] was “significant differences in the MIC between the two bacterial groups were not observed”. For the same compound, the “light dose for complete eradication” value [7] was “at least 40 J cm^−2”, the IC50 [8] was 5 µM and the intracellular tetracycline fluorescence [9] was “substantial increase in intracellular tetracycline fluorescence”.
